What was measured:
[1] = wn = mass fraction of the nth substance listed; conditions: 101 kPa, Liquid, w2 = 0; for viscosity: Capillary tube (Ostwald / Ubbelohde) method; for speed of sound: Frequency=3 MHz, Linear variable-path acoustic interferometer
[2] = mn = molality of the nth substance listed, in mol/kg; conditions: 101 kPa, Liquid, m2 = 0; for viscosity: Capillary tube (Ostwald / Ubbelohde) method; for speed of sound: Frequency=3 MHz, Linear variable-path acoustic interferometer

O [water] + O=C[C@H](O)[C@@H](O)[C@H](O)[C@H](O)CO
[1]
Conditions	speed of sound [m/s]	viscosity [mPa·s]
293.15 K	1483.6	1.002
298.15 K	–	0.8903
303.15 K	1508.4	0.7973
308.15 K	–	0.719
313.15 K	1526.8	0.6526
318.15 K	1533	0.5972

Conditions	mass density [kg/m3]
[1], 308.15 K, Pycnometric method	994.07

O [water] + N[C@@H](Cc1c[nH]cn1)C(=O)O
[2]
Conditions	speed of sound [m/s]	viscosity [mPa·s]
293.15 K	1483.6	1.002
298.15 K	–	0.8903
303.15 K	1508.4	0.7973
308.15 K	–	0.719
313.15 K	1526.8	0.6526
318.15 K	1533	0.5972

Conditions	mass density [kg/m3]
[2], 308.15 K, Pycnometric method	994.07

From the NIST ThermoML archive (doi:10.1016/j.jct.2010.11.017)
